Literature values in patent US20090023693A1, “NEW DROSPIRENONE/17BETA-ESTRADIOL REGIMEN, PHARMACEUTICAL COMBINATION PRODUCT AND KIT FOR PERFORMING THIS REGIMEN” (priority 2007, published 2009).

Legend:
[1] = target: T1, mineralocorticoid receptor (Homo sapiens, UniProt P08235); conditions: compared with aldosterone
T1 sequence (P08235 1-984): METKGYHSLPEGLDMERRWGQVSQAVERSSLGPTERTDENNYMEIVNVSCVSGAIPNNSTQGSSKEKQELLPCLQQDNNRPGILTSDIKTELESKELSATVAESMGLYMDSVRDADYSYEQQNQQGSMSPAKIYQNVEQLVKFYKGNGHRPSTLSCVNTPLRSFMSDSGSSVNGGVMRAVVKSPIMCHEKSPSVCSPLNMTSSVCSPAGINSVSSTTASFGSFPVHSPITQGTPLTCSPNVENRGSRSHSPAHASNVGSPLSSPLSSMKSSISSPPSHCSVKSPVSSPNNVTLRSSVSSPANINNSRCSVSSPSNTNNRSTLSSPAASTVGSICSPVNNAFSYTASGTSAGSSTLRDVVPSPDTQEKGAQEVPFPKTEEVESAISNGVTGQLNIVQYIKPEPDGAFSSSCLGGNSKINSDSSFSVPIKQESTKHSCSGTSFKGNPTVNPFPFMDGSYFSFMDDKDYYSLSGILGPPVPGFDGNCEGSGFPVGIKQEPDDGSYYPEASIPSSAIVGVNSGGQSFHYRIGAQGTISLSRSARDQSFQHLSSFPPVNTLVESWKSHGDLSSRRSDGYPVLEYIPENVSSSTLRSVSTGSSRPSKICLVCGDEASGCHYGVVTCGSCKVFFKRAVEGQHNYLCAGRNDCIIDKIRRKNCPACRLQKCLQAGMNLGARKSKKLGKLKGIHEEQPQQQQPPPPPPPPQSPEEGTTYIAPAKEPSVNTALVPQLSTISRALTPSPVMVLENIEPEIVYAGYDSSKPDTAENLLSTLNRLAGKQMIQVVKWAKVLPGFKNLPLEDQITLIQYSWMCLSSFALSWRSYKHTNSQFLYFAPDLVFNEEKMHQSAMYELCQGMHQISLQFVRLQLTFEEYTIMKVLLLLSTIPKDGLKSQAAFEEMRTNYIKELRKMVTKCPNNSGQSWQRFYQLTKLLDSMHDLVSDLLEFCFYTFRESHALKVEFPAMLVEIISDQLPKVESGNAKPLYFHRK

[2] = oral vs transdermal

C[C@]12CCC(=O)C=C1[C@@H]1C[C@@H]1[C@H]1[C@@H]3[C@@H]4C[C@@H]4[C@@]4(CCC(=O)O4)[C@@]3(C)CC[C@@H]12 [drospirenone, Drospirenone]
affinity for the mineralocorticoid receptor relative to aldosterone [1]: about five times that of aldosterone | blood pressure (hypertensive women): lowered | salt and water retention (in vivo): reduced | bioavailabilities after oral and transdermal administration [2]: roughly the same
